# Measured values from patent publication US20190365685A1, “EYE DROPS FOR TREATING DRY EYE” (LTT BIO-PHARMA CO., LTD., priority 2013, published 2019).
# How the values were obtained:
# HCE cells [1] = test: MTT assay in hyperosmotic media with diclofenac, NaCl and/or PGE2 (Example 3); format: cell-based, Human; conditions: 150 mM NaCl, 24 hours
# Procedure: HCE cells were incubated in hyperosmotic media containing diclofenac, 150 mM NaCl, and/or PGE2 for 24 hours. The number of viable cells was measured by MTT assay, and the absorbance data were expressed as relative values to that of the control (under isotonic conditions).
# The same procedure as in Example 3 was followed, except that bromfenac was used in place of diclofenac.
# [2] = test system: Human corneal epithelial cells (HCE cells); test: MTT assay of viable cells under hyperosmotic conditions (Example 1); format: cell-based; conditions: 150 mM NaCl, 280 mM glucose or 280 mM sorbitol, compared with other NSAIDs
# Procedure: Human corneal epithelial cells (HCE cells) were incubated in hyperosmotic media containing diclofenac. The hyperosmotic conditions of each medium were created by 150 mM NaCl, 280 mM glucose, or 280 mM sorbitol. The number of viable cells was measured by MTT assay, and the absorbance was calculated relative to the control (under isotonic conditions). The values are represented as average±S.D. (n=3), with a single asterisk (*) indicating P<0.05 and a double asterisk (**) indicating P<0.01.
# The same procedure as in Example 1 was followed, except that other nonsteroidal anti-inflammatory drugs (NSAIDs) were used in place of diclofenac.
# PGE2 = test: Amount of PGE2 induced by arachidonic acid, measured by EIA (Example 3); format: cell-based, Human; conditions: HCE cells, 30 minutes pre-incubation, 10 μM arachidonic acid
# Procedure: Separately, HCE cells were pre-incubated in media containing diclofenac for 30 minutes, and then incubated in media containing 10 μM arachidonic acid and diclofenac. The arachidonic acid was added to induce PGE2. The amount of PGE2 contained in each culture was measured by EIA. The values are represented as average±S.D. (n=3), with a single asterisk (*) indicating P<0.05 and a double asterisk (**) indicating P<0.01. The same procedure as in Example 3 was followed, except that bromfenac was used in place of diclofenac.
# [3] = test system: corneal surface disorders in the dry eye model; test: Rat dry eye model, fluorescein score after four weeks of administration (Example 10); format: in vivo; conditions: lacrimal gland removed, ophthalmic solution 5 μl, 0.05% (1.55 mM), three times a day
# Procedure: The lacrimal gland of a rat was removed to prepare a dry eye model. One week after the lacrimal gland removal, an ophthalmic solution (5 μl) containing diclofenac (0.05%, 1.55 mM; or 0.1%, 3.1 mM) was administered three times a day. After four weeks from the start of the administration, the tears were subjected to fluorescein staining, and the fluorescein score was calculated. The same procedure as in Example 10 was followed, except that a buffer was used (Vehicle) in place of diclofenac.
# HCE cells [4] = test: Caspase-3-like activity under hyperosmotic conditions (Example 2); format: cell-based, Human; conditions: 150 mM NaCl, six hours of incubation
# Procedure: (§1) HCE cells were incubated in hyperosmotic media containing diclofenac and 150 mM NaCl. After six hours of incubation, the caspase-3-like activity was measured using a fluorescent peptide substrate. Furthermore, after 12 hours of incubation, cell proliferation was assessed by BrdU incorporation assay, and the absorbance data were expressed as relative values to that of the control (under isotonic conditions). The values are represented as average±S.D. (n=3), with a single asterisk (*) indicating P<0.05 and a double asterisk (**) indicating P<0.01. The same procedure as in Example 2 was followed, except that bromfenac was used in place of diclofenac.
# NFAT5 = NFAT5 expression and nuclear translocation by immunoblotting (Example 4); format: cell-based, Human; conditions: HCE cells, 150 mM NaCl, six hours or one hour
# Procedure: HCE cells were incubated in hyperosmotic media containing diclofenac and 150 mM NaCl for six hours (FIG. 4A and FIG. 4C) or for one hour (FIG. 4B). Each whole cell homogenate (FIG. 4A and FIG. 4B) or nuclear extract (FIG. 4B) was analyzed by immunoblotting using an anti-NFAT5, anti-actin, or anti-lamin B antibody. The intensity of the NFAT5 band was measured and expressed as relative values to that of the control (under isotonic conditions without diclofenac) (FIG. 4A and FIG. 4B). The relative bgt1 mRNA expression level was measured by real-time RT-PCR, and the values normalized by the actin expression level are expressed as relative values to that of the control (under isotonic conditions without diclofenac) (FIG. 4C). The values are represented as average±S.D. (n=3), with a single asterisk (*) indicating P<0.05 and a double asterisk (**) indicating P<0.01. The same procedure as in Example 4 was followed, except that bromfenac was used in place of diclofenac.
# [5] = test system: corneal surface disorders in the dry eye model; test: Rat dry eye model by lacrimal gland removal (Example 5); format: in vivo; conditions: lacrimal gland removed, ophthalmic solution 5 μl, 0.1% (3.1 mM), three times a day, fluorescein score, TUNEL
# Procedure: The lacrimal gland of a rat was removed to prepare a dry eye model. One to five weeks after the lacrimal gland removal, an ophthalmic solution (5 μl) containing diclofenac (0.1%, 3.1 mM) was administered three times a day. The amount of tears was measured by the cotton thread test. Five weeks after the lacrimal gland removal, ocular tissue sections were prepared and subjected to TUNEL assay and DAPI staining. The values are represented as average±S.E.M., with a single asterisk (*) indicating P<0.01 and n.s. meaning “not significant”. The same procedure as in Example 5 was followed, except that bromfenac was used in place of diclofenac.
# HCE cells [6] = test: Cell proliferation by BrdU incorporation assay under hyperosmotic conditions (Example 2); format: cell-based, Human; conditions: 150 mM NaCl, 12 hours of incubation
# Procedure: as §1
SMILES,concentration required to reduce cytotoxicity caused by hyperosmolarity (HCE cells [1]; MTT),"reducing cytotoxicity under hyperosmotic conditions (number of viable cells, MTT) [2]",concentration required to reduce PGE2 (PGE2),corneal surface disorders in the dry eye model (fluorescein score) [3],inhibiting apoptosis under hyperosmotic conditions (caspase-3-like activity) (HCE cells [4]),expression and nuclear translocation of NFAT5 (NFAT5),effect of treating corneal surface disorders in the dry eye model [5],cell proliferative effect (BrdU incorporation) (HCE cells [6]),number of viable cells with PGE2 (MTT) (HCE cells [1]; hyperosmotic media)
O=C(O)Cc1ccccc1Nc1c(Cl)cccc1Cl [diclofenac],100 nM,highly effective in reducing cytotoxicity under hyperosmotic conditions,0.1 nM,treatable,effective in inhibiting apoptosis under hyperosmotic conditions,enhancing the expression and nuclear translocation of NFAT5,exhibited the effect of treating corneal surface disorders,exhibited a cell proliferative effect,–
"CCCCC[C@H](O)/C=C/[C@H]1[C@H](O)CC(=O)[C@@H]1C/C=C\CCCC(=O)O [PGE2, prostaglandin E2]",–,–,–,–,–,–,–,–,did not change
